One may read the solubility as the dissolved amount per volume that the medium holds.

The record followed here is patent US4542169A, “Biomedical devices containing isothiazolones to control bacteria growth” (Rohm and Haas Company, priority 1983, dated 1985).

In brackets after ≈: the same amount, converted by molar mass. Where a name gives a salt, the structure may show the parent alone.

One data set deals with Echerichia coli (E.c.). Nature of the data set: Zone of inhibition, polyvinyl chloride film discs on inoculated agar. Particulars: for Zone of Inhibition: PVC film; for Zones: PVC. It counts as cell-based. How it is done:
(§1) In a two-liter, three-necked, round-bottom, flask equipped with a mechanical stirrer was placed 100 g of polyvinyl chloride, 590 g of reagent grade tetrahydrofuran, and 40.0 g of dioctylphthalate. This was stirred with gentle heating (35°-40° C.) for two hours to completely dissolve the polyvinyl chloride. Then, a barium/calcium salt of a fatty acid (3.5 g), a phosphite chelating agent (1.5 g), stearic Acid (0.25 g) and epoxidized soy bean oil (7.5 g), were mixed with 21 g of tetrahydrofuran and added to the polyvinyl chloride solution. After stirring at room temperature for 30 minutes, the solution was ready for use.
(§2) Films containing the isothiazolones were cast by first preparing a 0.5 weight percent polyvinyl chloride solution by adding the isothiazolone to the polyvinyl chloride solution. Then, portions of the 0.5% solution were diluted to 0.1 and 0.05%. The films were drawn down on 12"×12" glass plates using a 50 mil-3" wide coating bar and the films were allowed to air dry for 48 hours.
(§3) The films were cut into 1.25 cm discs and placed in agar plates inoculated with Staphlococcus aureus (S.a) or Echerichia coli (E.c.).

In data set [1] the test system is Staphlococcus aureus (S.a). The description is as above. It counts as cell-based. Conditions: for Zone of Inhibition: PVC film; for Zones: PVC. How it is done:
as §1, §2, §3

A further data set is described as follows: Solubility in H2O. It counts as physicochemical. Conditions: water.
The subject of data set [2] is Aspergillis niger (A.n.). Nature of the data set: Zone of inhibition, polyvinyl chloride film. Particulars: PVC film. Format: cell-based.
Data set [3] concerns Aerobasidium pullulans (A.p). Nature of the data set: Growth of fungus on polyvinyl chloride film. Format: cell-based. Further details: key: 0: zero (no growth); 5: five (heavy growth). Conditions: PVC film. The procedure: as §1, §2
(§4) In addition to zones of inhibition, the films were observed by growth of fungus on the film and rated from zero (no growth) to five (heavy growth).

Data set [4] concerns Aspergillis niger (A.n.). Nature of the data set: Growth of fungus on polyvinyl chloride film. Format: cell-based. Further details: key: 0: zero (no growth); 5: five (heavy growth). Conditions: PVC film. How it is done:
as §1, §2, §4

Data set [5] concerns Aerobasidium pullulans (A.p). Nature of the data set: Zone of inhibition, polyvinyl chloride film. It counts as cell-based. Conditions: PVC film.
The subject of the next data set is S.a. The experiment in a line: Zone of inhibition, silicone rubber film discs on inoculated agar. It counts as cell-based, Staphlococcus aureus. Conditions: Silicone, S.a.
Text: as §3
(§5) The films were cut into discs and tested as in example one against S.a. and E.c.

Another data set relates to P.a. The experiment in a line: Zone of inhibition, silicone film. Format: cell-based, Pseudomonas aeruginosa.
The test system of a further data set is E.c. Nature of the data set: Zone of inhibition, silicone rubber film discs on inoculated agar. It counts as cell-based, Echerichia coli. Conditions: Silicone.
Text: as §3, §5

For data set [6], the system named is Pseudomonas aeruginosa (P.a.). The experiment in a line: Zone of inhibition, polyvinyl chloride (vinyl) film discs. Particulars: PVC. Format: cell-based. The procedure:
as §1, §3
Discs were tested against Pseudomonas aeruginosa (P.a.). The 1.0% films gave a slight zone of inhibition while the 5.0% film gave a 1 mm zone of inhibition.

On to `O=c1c(Cl)c(Cl)sn1Cc1ccccc1` [Compound 2, 4,5-Dichloro-N--benzyl-isothiazolin-3-one], for which the “Zone of Inhibition” value with Echerichia coli (E.c.) (0.05%) turned out to be 0 mm; in the data set with Echerichia coli (E.c.) (0.1%), 0 mm; in the data set on Echerichia coli (E.c.) (0.5%), 3.3 mm; in data set [1] (0.05%), 2.0 mm; in [1] (0.1%), 3.8 mm; in the data set with Aspergillis niger (A.n.) [2] (0.05%), 0 mm. The “Zone of Inhibition” value in the data set on Aspergillis niger (A.n.) [2] (0.1%) is reported as 0 mm; in the data set on Aspergillis niger (A.n.) [2] (0.5%) it was 4.3 mm; in [5] (0.05%) it was 0 mm; in [5] (0.1%), 0 mm; in [5] (0.5%), 4.8 mm. The concentration in solution in the data set “Solubility in H2O” (solubility) was 195 µg/mL (≈ 750 µM). For the same compound, the “Growth on Film” value is recorded as 4 in [3] (0.05%); 0 in data set [3] (0.1%); 0 in data set [3] (0.5%); 4 in the data set with Aspergillis niger (A.n.) [4] (0.05%); 0 in the data set with Aspergillis niger (A.n.) [4] (0.1%); 0 in the data set on Aspergillis niger (A.n.) [4] (0.5%).

For the compound `CCN1CCN(C(=O)N[C@@H](C(=O)N[C@@H]2C(=O)N3[C@@H]2SC(C)(C)[C@@H]3C(=O)O)c2ccccc2)C(=O)C1=O` [P, Piperacillin Na, reference compound], the Zones was found to be 14.8 mm with S.a. (1.0%); 21.3 mm with S.a. (5.0%); 0 mm with S.a. (.04%); 0 mm with S.a. (.20%); 0 mm in the data set with Echerichia coli (E.c.) (1.0%); 0 mm in the data set with Echerichia coli (E.c.) (.04%). The Zones with Echerichia coli (E.c.) (.20%) is recorded as 0 mm; in [1] (1.0%), “slight”; in data set [1] (5.0%) it was 13.8 mm; in [1] (.04%), 0 mm; in [1] (.20%) it was 0 mm; with P.a. (1.0%), 5.3 mm. The Zones came out at 13.3 mm in the data set on P.a. (5.0%); 0 mm with P.a. (.04%); 0 mm in the data set with P.a. (.20%); 13.3 mm with E.c. (1.0%); 17.3 mm in the data set with E.c. (5.0%); 0 mm with E.c. (.04%). Further, the Zones is 0.8 mm in the data set on E.c. (.20%); 0 mm in [6] (1.0%); 9.8 mm in data set [6] (5.0%); 0 mm in data set [6] (.04%); 0 mm in data set [6] (.20%).

Turning to `CN(C)C1C(=O)C(C(N)=O)=C(O)C2(O)C(=O)C3=C(O)c4c(O)cccc4C(C)(O)C3CC12` (stereo not drawn) [T, Tetracycline HCl, reference compound], the Zones in the data set on S.a. (1.0%) came out at 21.3 mm; in the data set with S.a. (5.0%) it was 26.3 mm; in the data set with S.a. (.04%) it was 6.3 mm; in the data set with S.a. (.20%), 15.8 mm; in the data set on Echerichia coli (E.c.) (1.0%) it was 0 mm; in the data set on Echerichia coli (E.c.) (.04%), 0 mm. Besides, the Zones came to 5.8 mm in the data set with Echerichia coli (E.c.) (.20%); 11.3 mm in data set [1] (1.0%); 19.8 mm in data set [1] (5.0%); 0 mm in [1] (.04%); 0 mm in data set [1] (.20%); 0 mm in the data set on P.a. (1.0%). In addition, the Zones is reported as 0 mm in the data set with P.a. (5.0%); 0.3 mm in the data set with P.a. (.20%); 9.8 mm in the data set on E.c. (1.0%); 19.8 mm in the data set on E.c. (5.0%); 0 mm with E.c. (.04%); 5.8 mm with E.c. (.20%). Further, the Zones in data set [6] (1.0%), in data set [6] (5.0%), in data set [6] (.04%) and in [6] (.20%) was 0 mm throughout.

For the compound Gentamycin sulfate [reference compound], the Zones with Echerichia coli (E.c.) (5.0%) is 9.3 mm; in the data set with Echerichia coli (E.c.) (.04%), 0 mm; in data set [1] (.04%), “slight”; in data set [6] (5.0%) it was 6.8 mm; in data set [6] (.04%), 0 mm; in data set [6] (.20%) it was 3.3 mm.
